Results: PubChem BioAssay AID1963964 (Molecular Pharmacology Branch, DTP, NCI, 2024)

Tested on: 997726-040-R-J2-PDC tumor spheroids, viability
Assay: Anticancer human tumor 997726-040-R-J2-PDC patient-derived squamous cell lung carcinoma cell line growth inhibition [PI3K]
Details: spheroids with HUVEC and MSC; for IC50: curve of first compound; for viability, T/C: stronger effect = lower value
Method in brief: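 Three cell types, namely tumor cells, endothelial cells and mesenchymal stem cells, formed each spheroid. Combinations with four PI3K inhibitors were screened at clinically achievable concentrations decreasing by half-log, and spheroid viability was recorded.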

[1] = second compound 0.0316 µM, first compound 0.0316 µM
[2] = second compound 0.0316 µM, first compound 0.1 µM
[3] = second compound 0.0316 µM, first compound 0.316 µM
[4] = second compound 0.0316 µM, first compound 1 µM
[5] = second compound 0.1 µM, first compound 0.0316 µM
[6] = second compound 0.1 µM, first compound 0.1 µM
[7] = second compound 0.1 µM, first compound 0.316 µM
[8] = second compound 0.1 µM, first compound 1 µM
[9] = second compound 0.316 µM, first compound 0.0316 µM
[10] = second compound 0.316 µM, first compound 0.1 µM
[11] = second compound 0.316 µM, first compound 0.316 µM
[12] = second compound 0.316 µM, first compound 1 µM
[13] = second compound 1 µM, first compound 0.0316 µM
[14] = second compound 1 µM, first compound 0.1 µM
[15] = second compound 1 µM, first compound 0.316 µM
[16] = second compound 1 µM, first compound 1 µM
[17] = second compound 3.16 µM, first compound 0.0316 µM
[18] = second compound 3.16 µM, first compound 0.1 µM
[19] = second compound 3.16 µM, first compound 0.316 µM
[20] = second compound 3.16 µM, first compound 1 µM
[21] = second compound 10 µM, first compound 0.0316 µM
[22] = second compound 10 µM, first compound 0.1 µM
[23] = second compound 10 µM, first compound 0.316 µM
[24] = second compound 10 µM, first compound 1 µM
[25] = second compound 0.0316 µM, first compound 3.16 µM
[26] = second compound 0.0316 µM, first compound 10 µM
[27] = second compound 0.1 µM, first compound 3.16 µM
[28] = second compound 0.1 µM, first compound 10 µM
[29] = second compound 0.316 µM, first compound 3.16 µM
[30] = second compound 0.316 µM, first compound 10 µM
[31] = second compound 1 µM, first compound 3.16 µM
[32] = second compound 1 µM, first compound 10 µM
[33] = second compound 3.16 µM, first compound 3.16 µM
[34] = second compound 3.16 µM, first compound 10 µM
[35] = second compound 10 µM, first compound 3.16 µM
[36] = second compound 10 µM, first compound 10 µM
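Also: spheroids exposed to compounds for seven days before readout.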

CCN1CCN(Cc2ccc(Nc3ncc(F)c(-c4cc(F)c5nc(C)n(C(C)C)c5c4)n3)nc2)CC1 + CC(Nc1ncnc2nc[nH]c12)c1cc2cccc(Cl)c2c(=O)n1-c1ccccc1
IC50 (second compound 0.0316 µM): > 1000 nM | IC50 (second compound 0.1 µM): > 1000 nM | IC50 (second compound 0.316 µM): > 1000 nM | IC50 (second compound 1 µM): > 1000 nM | IC50 (second compound 3.16 µM): > 1000 nM | IC50 (second compound 10 µM): 5.26 nM | viability, T/C (second compound 0.0316 µM, first compound 0.00316 µM): 95.3% | viability, T/C (second compound 0.0316 µM, first compound 0.01 µM): 82.4% | viability, T/C [1]: 75.6% | viability, T/C [2]: 74.4% | viability, T/C [3]: 67.2% | viability, T/C [4]: 76.8% | viability, T/C (second compound 0.1 µM, first compound 0.00316 µM): 81.7% | viability, T/C (second compound 0.1 µM, first compound 0.01 µM): 91.1% | viability, T/C [5]: 73.1% | viability, T/C [6]: 68.3% | viability, T/C [7]: 74.9% | viability, T/C [8]: 82.7% | viability, T/C (second compound 0.316 µM, first compound 0.00316 µM): 87.5% | viability, T/C (second compound 0.316 µM, first compound 0.01 µM): 97.1% | viability, T/C [9]: 73.2% | viability, T/C [10]: 68.7% | viability, T/C [11]: 69.8% | viability, T/C [12]: 78.4% | viability, T/C (second compound 1 µM, first compound 0.00316 µM): 79.1% | viability, T/C (second compound 1 µM, first compound 0.01 µM): 78.4% | viability, T/C [13]: 59.9% | viability, T/C [14]: 61.5% | viability, T/C [15]: 61.4% | viability, T/C [16]: 68.9% | viability, T/C (second compound 3.16 µM, first compound 0.00316 µM): 70.7% | viability, T/C (second compound 3.16 µM, first compound 0.01 µM): 66.1% | viability, T/C [17]: 56.3% | viability, T/C [18]: 52.1% | viability, T/C [19]: 60.1% | viability, T/C [20]: 66% | viability, T/C (second compound 10 µM, first compound 0.00316 µM): 51.5% | viability, T/C (second compound 10 µM, first compound 0.01 µM): 50.9% | viability, T/C [21]: 41.2% | viability, T/C [22]: 40.9% | viability, T/C [23]: 40.6% | viability, T/C [24]: 47.1%

Cn1ncc(Cl)c1-c1cc(C(=O)NC(CN)Cc2cccc(F)c2)sc1Cl (stereo unspecified) + CC(Nc1ncnc2nc[nH]c12)c1cc2cccc(Cl)c2c(=O)n1-c1ccccc1
IC50 (second compound 0.0316 µM): 112 nM | IC50 (second compound 0.1 µM): 118 nM | IC50 (second compound 0.316 µM): 113 nM | IC50 (second compound 1 µM): 128 nM | IC50 (second compound 3.16 µM): 76.9 nM | IC50 (second compound 10 µM): 36.3 nM | viability, T/C [1]: 79.2% | viability, T/C [2]: 52.6% | viability, T/C [3]: 26.7% | viability, T/C [4]: 16.1% | viability, T/C [25]: 9.99% | viability, T/C [26]: 12.3% | viability, T/C [5]: 71.1% | viability, T/C [6]: 52.8% | viability, T/C [7]: 30.5% | viability, T/C [8]: 14.9% | viability, T/C [27]: 10.7% | viability, T/C [28]: 12.4% | viability, T/C [9]: 78.2% | viability, T/C [10]: 52.8% | viability, T/C [11]: 26.3% | viability, T/C [12]: 16% | viability, T/C [29]: 11.8% | viability, T/C [30]: 13.8% | viability, T/C [13]: 72.7% | viability, T/C [14]: 56.5% | viability, T/C [15]: 26.7% | viability, T/C [16]: 16.8% | viability, T/C [31]: 12.7% | viability, T/C [32]: 12.7% | viability, T/C [17]: 66.1% | viability, T/C [18]: 44.6% | viability, T/C [19]: 27.8% | viability, T/C [20]: 15.2% | viability, T/C [33]: 12.2% | viability, T/C [34]: 12.8% | viability, T/C [21]: 51.5% | viability, T/C [22]: 38.8% | viability, T/C [23]: 21.2% | viability, T/C [24]: 13.3% | viability, T/C [35]: 10% | viability, T/C [36]: 9.74%

Cn1nccc1Nc1nccc(-c2ccn(C(CO)c3ccc(Cl)c(F)c3)c(=O)c2)n1 (stereo unspecified) + CC(Nc1ncnc2nc[nH]c12)c1cc2cccc(Cl)c2c(=O)n1-c1ccccc1
IC50 (second compound 0.0316 µM): > 10000 nM | IC50 (second compound 0.1 µM): > 10000 nM | IC50 (second compound 0.316 µM): > 10000 nM | IC50 (second compound 1 µM): > 10000 nM | IC50 (second compound 3.16 µM): > 10000 nM | IC50 (second compound 10 µM): 70.8 nM | viability, T/C [1]: 93.3% | viability, T/C [2]: 81.7% | viability, T/C [3]: 77.2% | viability, T/C [4]: 69.3% | viability, T/C [25]: 64.2% | viability, T/C [26]: 59.5% | viability, T/C [5]: 91.6% | viability, T/C [6]: 90.1% | viability, T/C [7]: 73.9% | viability, T/C [8]: 69.4% | viability, T/C [27]: 62.5% | viability, T/C [28]: 61.8% | viability, T/C [9]: 89.6% | viability, T/C [10]: 93.7% | viability, T/C [11]: 74% | viability, T/C [12]: 57.2% | viability, T/C [29]: 64.3% | viability, T/C [30]: 62.4% | viability, T/C [13]: 96.5% | viability, T/C [14]: 77.6% | viability, T/C [15]: 74.2% | viability, T/C [16]: 67.6% | viability, T/C [31]: 58.8% | viability, T/C [32]: 60.2% | viability, T/C [17]: 73.9% | viability, T/C [18]: 62.7% | viability, T/C [19]: 61.6% | viability, T/C [20]: 55.6% | viability, T/C [33]: 57.8% | viability, T/C [34]: 48.2% | viability, T/C [21]: 56.2% | viability, T/C [22]: 47.6% | viability, T/C [23]: 37.2% | viability, T/C [24]: 43.6% | viability, T/C [35]: 40.4% | viability, T/C [36]: 31.1%
